Like-named read-outs stand apart in the source and are kept apart here.
System: Methicillin-Resistant Staphylococcus aureus (MRSA)
Experiment: microbe, parasite or virus in culture
Experimental: At the prescribed time points, gels were removed and placed in active bacteria cultures for 24 hours. After 24 hours, the gels were removed and the bacteria zone of exclusion will be measured.
Briefly, Methicillin-Resistant Staphylococcus aureus (MRSA) was cultured in brain-heart infusion broth and diluted to match a 0.5 McFarland turbidity standard. The resulting culture was tested with gram stain to ensure the MRSA was present. After determining that the MRSA was indeed gram-positive and present, the MRSA was carefully spread onto 150 mm agar plates to inoculate the plates. 5 mcg and 30 mcg vancomycin loaded disks were placed on each agar plate as antibiotic controls. Six plates were run in this experiment, with three plates containing aliquots (from the eluates collected from the study of Example 1 Aim 1) with peroxide (FIG. 7A), while the other three plates contained aliquots run with collagenase & phosphate buffered saline (FIG. 7B).
Aliquots from days 3, 7, 14, 21, and 28 were run. 10 μL of each aliquot was pipetted onto filter paper and placed onto the agar plates. The agar plates were incubated for 24 hours at 37 degrees Celsius, and the zones of inhibition were measured the following morning.

CN[C@H](CC(C)C)C(=O)N[C@H]1C(=O)N[C@@H](CC(N)=O)C(=O)N[C@H]2C(=O)N[C@H]3C(=O)N[C@H](C(=O)N[C@H](C(=O)O)c4cc(O)cc(O)c4-c4cc3ccc4O)[C@H](O)c3ccc(c(Cl)c3)Oc3cc2cc(c3O[C@@H]2O[C@H](CO)[C@@H](O)[C@H](O)[C@H]2O[C@H]2C[C@](C)(N)[C@H](O)[C@H](C)O2)Oc2ccc(cc2Cl)[C@H]1O [Vanc., vancomycin]
zone of inhibition at 5 µg/disc (read-out: 5 mcg Vanc. zone of inhibition, average, 5 mcg vancomycin control disk, average of plates 1-3 (collagenase & phosphate buffered saline)): 1.33 mm
zone of inhibition at 5 µg/disc (read-out: 5 mcg Vanc. zone of inhibition, average, 5 mcg vancomycin control disk, average of plates 4-6 (peroxide)): 1.33 mm
zone of inhibition at 30 µg/disc (read-out: 30 mcg Vanc. zone of inhibition, average, 30 mcg vancomycin control disk, average of plates 1-3 (collagenase & phosphate buffered saline)): 4.67 mm
zone of inhibition at 30 µg/disc (read-out: 30 mcg Vanc. zone of inhibition, average, 30 mcg vancomycin control disk, average of plates 4-6 (peroxide)): 4.33 mm

From patent publication US20260191769A1, “DRUG ELUTING IMPLANTS AND USES THEREOF” (MUSC FOUNDATION FOR RESEARCH DEVELOPMENT, priority 2022, published 2026)
